Laboratory results reported in US10526336B2, “Fused heteroaryl derivatives as orexin receptor antagonists” (Merck Sharp & Dohme Corp., priority 2014, dated 2020).

Target: human orexin-2 receptor (Homo sapiens (Human), UniProt O43614)
Assay: FLIPR Ca2+ Flux Assay, orexin-2 receptor antagonism in CHO cells
Format: cell-based
Conditions: CHO cells expressing the human orexin-2 receptor; agonist 70 pM Ala-6,12 orexin-A; read-out: hOX2 FLIPR IC50
Summary of the method: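 CHO cells expressing rat OX1R or human OX2R, Fluo-4AM loaded, given compounds for 5 min, then challenged with 70 pM Ala-6,12 human orexin-A in HBSS/HEPES/BSA/probenecid, pH 7.4. FLIPR calcium fluorescence recorded 5 min; peak height versus agonist-alone gives IC50.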

human orexin-2 receptor, sequence (O43614 whole entry): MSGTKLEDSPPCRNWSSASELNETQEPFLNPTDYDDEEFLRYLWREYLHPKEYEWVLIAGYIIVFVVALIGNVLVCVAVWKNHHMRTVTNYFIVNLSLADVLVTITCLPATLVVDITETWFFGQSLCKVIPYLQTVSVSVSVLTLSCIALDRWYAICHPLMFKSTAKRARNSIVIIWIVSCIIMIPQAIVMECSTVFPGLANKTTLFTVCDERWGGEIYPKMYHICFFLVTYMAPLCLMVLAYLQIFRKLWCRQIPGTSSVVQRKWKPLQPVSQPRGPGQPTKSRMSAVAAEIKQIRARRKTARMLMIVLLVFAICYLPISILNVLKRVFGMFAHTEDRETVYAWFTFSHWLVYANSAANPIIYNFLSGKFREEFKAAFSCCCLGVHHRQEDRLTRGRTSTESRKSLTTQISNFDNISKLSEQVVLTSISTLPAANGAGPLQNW

| Compound | IC50 |
| --- | --- |
| C[C@@H]1CC[C@@H](Oc2nccn3cncc23)CN1C(=O)c1ccccc1-n1nccn1 [Example 102, (2-(2H-1,2,3-triazol-2-yl)phenyl)((2R,5R)-5-(imidazo[1,5-a]pyrazin-8-yloxy)-2-methylpiperidin-1-yl)methanone] | 14 nM |
| Cc1ncc2c(O[C@@H]3CC[C@@H](C)N(C(=O)c4ccccc4-n4nccn4)C3)nccn12 [Example 103, (2-(2H-1,2,3-triazol-2-yl)phenyl)((2R,5R)-2-methyl-5-((3-methylimidazo[1,5-a]pyrazin-8-yl)oxy)piperidin-1-yl)methanone] | 23.5 nM |
| Cc1nc2ccnc(O[C@@H]3CC[C@@H](C)N(C(=O)c4ccccc4-n4nccn4)C3)n2n1 [Example 104, (2-(2H-1,2,3-triazol-2-yl)phenyl)((2R,5R)-2-methyl-5-((2-methyl-[1,2,4]triazolo[1,5-c]pyrimidin-5-yl)oxy)piperidin-1-yl)methanone] | 60 nM |
| Cc1nc2ccnc(N[C@@H]3CC[C@@H](C)N(C(=O)c4ccccc4-n4nccn4)C3)n2n1 [Example 105, (2-(2H-1,2,3-triazol-2-yl)phenyl)((2R,5R)-2-methyl-5-((2-methyl-[1,2,4]triazolo[1,5-c]pyrimidin-5-yl)amino)piperidin-1-yl)methanone] | 27.6 nM |
| C[C@@H]1CC[C@@H](Oc2cccn3c(=O)n(C)nc23)CN1C(=O)c1ccccc1-n1nccn1 [Example 106, 8-(((3R,6R)-1-(2-(2H-1,2,3-triazol-2-yl)benzoyl)-6-methylpiperidin-3-yl)oxy)-2-methyl-[1,2,4]triazolo[4,3-a]pyridin-3(2H)-one] | 178 nM |
